The IC50 is the concentration needed to halve the response being measured.

This data set can be described thus: Antioxidant activity in soybean large unilamellar vesicles assessed as inhibition of AAPH-induced lipid peroxidation compound added prior to AAPH induction measured after 90 mins by UV-visible absorption spectrometric analysis. It is filed as physicochemical.
With `CCCCCCCC/C=C/CCCCCCCc1c(C)c(O)cc2c1[nH]c1ccccc12`, the IC50 came out at 0.16 µM.
With VITAMIN E, the IC50 came out at 0.8 µM.
With `Cc1cc2[nH]c3ccccc3c2cc1O`, the IC50 was 1 µM.
Take `O=c1c(O)c(-c2ccc(O)c(O)c2)oc2cc(O)cc(O)c12` [QUERCETIN]: the IC50 is 0.2 µM.

(Values after ChEMBL document CHEMBL3593180, “Lipocarbazole, an efficient lipid peroxidation inhibitor anchored in the membrane” (Bioorg Med Chem, 2015).)
